Data: patent US20140287454A1, “SUSCEPTIBILITY TO SELECTIVE CDK9 INHIBITORS” (MAX-PLANCK-GESELLSCHAFT ZUR FÖRDERUNG DER WISSENSCHAFTEN …, priority 2011, published 2014)

What was measured:
[1] = molecular target: T1, CDK9/CyclinT1 (Homo sapiens, UniProt P50750); assay: Lance Ultra KinaSelect Assay, CDK9; assay type: biochemical; details: FIG. 2
T1 construct: purchased Invitrogen
Text: (§1) The principle behind this enzymatic assay is based upon the phosphorylation of the Ulight-Peptide Substrat. It is detected by using a specific EU-labeled anti-phospho peptide antibody. […] Binding of an inhibitor to the kinase prevents phosphorylation of the Ulight-MBP Substrat, resulting in a loss of FRET.
as §1
This compound predilution was then serial diluted 1:3 over 8 steps in DMSO and briefly spun down. Each compound solution was now diluted 1:20 in Enzymatic Buffer (HEPES: 50 mM, pH: 7.5; MgCl2: 10 mM; EGTA: 1 mM; DTT: 2 mM; Tween-20: 0.01%), mixed thoroughly and spun down.

[2] = tested on: BrdNut mutated cell lines (HCC2429, TY-82, 690100, 143100); assay: Proliferation assay on Brd-4-Nut mutated versus wild type cell lines (FIG. 4); assay type: cell-based; details: mutated: HCC2429, TY-82, 690100, 143100, wild type: Hela, HCC366, H460, HCC1143, hPBMCs
Experimental: The proliferation results are presented as IC50 in μM. First, the anti-proliferative effect of CDK9 inhibitors is much more pronounced on BrdNut mutated cell lines (=sensitive cell lines).
Cell lines were maintained in RPMI 1640 cell culture medium+glutamine (PAN Biotech GmbH, Aidenbach, Germany; order no. P04-22100; P04-05500) supplemented with 10% fetal calf serum “Gold” (PAA Laboratories GmbH, Pasching, Austria; order no. A15-151) and grown in a humidified atmosphere at 37° C., 5% CO2. As a first step, an optimal cell density for each cell line was determined to guarantee linearity. For viability assays with compounds, cells were then seeded at a density of 200 to 1000 per well in 25 μl in 384-well plates (Greiner Bio-One, Frickenhausen, Germany; order no. 781080). After overnight incubation at 37° C./5% CO2, 25 nl or 75 nl compounds were added to each sample well by using BIOMEK FX^P Laboratory Automation Workstation (Beckman Coulter, USA). Wells with cells and 0.1% or 0.3% DMSO in culture medium were used as positive controls, wells with cells and 10 μM staurosporine (Selleck Chemicals, Huston, USA) in culture medium were used as negative controls. […] Luminescence was measured by Envision Plate Reader (Perkin Elmer, USA). […]

[3] = tested on: HCC2429 cells; assay: Proliferation / cell viability assay (Cell Titer Glo) on HCC2429; assay type: cell-based; details: FIG. 1; for IC50: 72 h incubation, ATP content by CTG; for effect on proliferation of HCC2429 cells, in words: dose response experiments
Experimental: Proliferation assays were performed as described below under materials and methods. […] (Cpd B1 and Ro-3306) were applied at concentrations between 30 and 0.0137 μM. After 72 h incubation with compounds ATP content/proliferation was determined employing CTG (Promega). Relative proliferation values (compared to vehicle control) were used to calculate IC50 values (Excel fit; algorithm #205). IC50s of the respective compound (Y-axis; logarithmic scale) on proliferation of various cell lines (X-axis) are depicted in black bars. White bars indicate that an IC50 could not be determined due to too low activity and therefore was higher than the highest applied concentration in the assays (30 μM). IC50s of compounds on CDK9 inhibitor sensitive cell line HCC2429 are presented in grey bars.
Cell lines were maintained in RPMI 1640 cell culture medium+glutamine (PAN Biotech GmbH, Aidenbach, Germany; order no. P04-22100; P04-05500) supplemented with 10% fetal calf serum “Gold” (PAA Laboratories GmbH, Pasching, Austria; order no. A15-151) and grown in a humidified atmosphere at 37° C., 5% CO2. As a first step, an optimal cell density for each cell line was determined to guarantee linearity. For viability assays with compounds, cells were then seeded at a density of 200 to 1000 per well in 25 μl in 384-well plates (Greiner Bio-One, Frickenhausen, Germany; order no. 781080). After overnight incubation at 37° C./5% CO2, 25 nl or 75 nl compounds were added to each sample well by using BIOMEK FX^P Laboratory Automation Workstation (Beckman Coulter, USA). Wells with cells and 0.1% or 0.3% DMSO in culture medium were used as positive controls, wells with cells and 10 μM staurosporine (Selleck Chemicals, Huston, USA) in culture medium were used as negative controls. Upon incubation with compounds for 72 h at 37° C./5% CO2 25 μl Cell Titer Glo reagent (Promega, Madison, USA, order no. G7573; 1:2 diluted with cell culture medium) was added to each well to determine cell viability. 384well-plates were placed for 2 min on an orbital microplate shaker and incubated for further 10 min at room temperature resulting in a stabilization of light signal. Luminescence was measured by Envision Plate Reader (Perkin Elmer, USA). IC50 values were calculated with the software Excel Fit (IDBS, Guildford, UK) from 3-fold dilution series comprising 8 concentrations in duplicates.

[4] = molecular target: T2, CDK9/CycT (Homo sapiens, UniProt P50750); assay: Radiometric protein kinase assay (33PanQinase Activity Assay), kinase selectivity; assay type: biochemical; details: 23 different kinases, 10 μM compound versus DMSO control; FIG. 3
T2 construct: purchased ProQinase
T2 sequence (P50750 whole entry): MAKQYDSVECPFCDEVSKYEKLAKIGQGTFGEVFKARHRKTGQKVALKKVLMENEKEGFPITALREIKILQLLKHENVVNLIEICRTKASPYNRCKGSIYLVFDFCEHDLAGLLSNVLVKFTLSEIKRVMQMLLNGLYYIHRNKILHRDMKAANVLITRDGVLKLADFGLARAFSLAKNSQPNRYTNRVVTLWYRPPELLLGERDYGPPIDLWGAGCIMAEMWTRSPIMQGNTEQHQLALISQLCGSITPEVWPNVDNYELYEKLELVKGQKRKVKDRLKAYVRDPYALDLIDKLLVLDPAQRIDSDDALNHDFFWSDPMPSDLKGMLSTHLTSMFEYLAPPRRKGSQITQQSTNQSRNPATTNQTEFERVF
T2 sequence (O60563 whole entry partner): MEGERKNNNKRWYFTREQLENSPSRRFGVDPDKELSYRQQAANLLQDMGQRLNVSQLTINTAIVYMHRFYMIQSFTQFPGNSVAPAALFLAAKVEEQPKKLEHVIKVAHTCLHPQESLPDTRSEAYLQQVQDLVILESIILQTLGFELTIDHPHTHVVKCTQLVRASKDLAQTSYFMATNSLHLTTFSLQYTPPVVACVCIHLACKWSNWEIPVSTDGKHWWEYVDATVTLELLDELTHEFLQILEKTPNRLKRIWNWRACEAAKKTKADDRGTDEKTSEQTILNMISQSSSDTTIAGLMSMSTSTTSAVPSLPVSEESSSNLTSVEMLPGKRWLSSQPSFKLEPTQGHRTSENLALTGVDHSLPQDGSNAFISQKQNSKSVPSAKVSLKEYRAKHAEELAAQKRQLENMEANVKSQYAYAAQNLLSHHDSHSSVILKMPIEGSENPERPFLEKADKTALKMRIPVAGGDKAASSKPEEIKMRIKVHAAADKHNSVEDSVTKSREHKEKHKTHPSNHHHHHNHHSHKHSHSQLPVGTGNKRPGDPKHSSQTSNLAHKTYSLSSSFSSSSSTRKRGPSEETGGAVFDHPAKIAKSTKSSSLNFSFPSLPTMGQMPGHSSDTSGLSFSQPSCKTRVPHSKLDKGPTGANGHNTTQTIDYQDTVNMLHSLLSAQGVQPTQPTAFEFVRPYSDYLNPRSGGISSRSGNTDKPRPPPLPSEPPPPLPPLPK
Experimental: A radiometric protein kinase assay (33PanQinase® Activity Assay) was used for measuring the kinase activity of protein kinases employing exemplary CDK9 inhibitors to be used in the present invention (see FIG. 3). […] Activities of other kinases are not inhibited.
A similar experimental procedure is performed when the resulting activity within ^33PanQinase® assay is done. In advance buffers are prepared but in this case the pipetting sequence is first ATP solution diluted with assay buffer, DMSO or compound solution. The reaction (1 h at 30° C.) is started by addition of a substrate-kinase mix. During the incubation the kinase phosphorylates the substrate (different for each kinase). Due to the fact that the ATP solution contains ^33P-labelled ATP the substrate proteins are labeled with ^33P. The reaction is stopped by addition of excess H3PO4. If the reaction is performed in plates binding substrate proteins, said plates are washed to reduce unspecific signals (mainly not used ATP). […] Therefore, the incorporated radioactivity is detected by scintillation counting. Data is evaluated, processed and analyzed as described for the LANCE assays. […]
The reaction cocktails were incubated at 30° C. for 60 minutes. […] Incorporation of 33Pi (counting of “cpm”) was determined with a microplate scintillation counter (Microbeta, Wallac).

T1 sequence (P50750 whole entry): as the sequence (P50750 whole entry) above
T1 sequence (O60563 whole entry partner): as the sequence (O60563 whole entry partner) above

CDK9 inhibition potency, in words [1]	IC50 [3] [nM]	IC50 ([3]; Homo sapiens, HCC2429) [nM]	residual kinase activities / kinase selectivity, in words [4]	SMILES	proliferation inhibition in mutated, sensitive cell lines compared with wild type cell lines, in words [2]	effect on proliferation of HCC2429 cells, in words [3]
relatively weak	–	–	–	COc1ccccc1-c1cc(Nc2cccc(CS(N)(=O)=O)c2)ncn1 [1073485-20-7P, 3-[[6-(2-methoxyphenyl)-4-pyrimidinyl]amino]-Benzenemethanesulfonamide]	much more potent in mutated, sensitive cell lines	–
–	> 10000	–	–	O=C1NC(=NCc2cccs2)S/C1=C\c1ccc2ncccc2c1 [Ro-3306]	–	did not show comparable effects
–	–	151	inhibits only CDK9 with high potency	COc1ccccc1-c1ncnc(Nc2cccc(CS(N)(=O)=O)c2)n1 [Cpd B1, 3-[(4-(2-Methoxyphenyl)-1,3,5-triazin-2-yl)amino]benzenemethanesulfonamide]	–	potently affected proliferation
